Molecules are shown by their SMILES. Where a name gives a salt, the structure may show the parent alone. Where only a bound is given, the exact number is not on record here.

The target in this test is T1, TLR7/NFKb HEK cells (Homo sapiens, UniProt Q9NYK1).
T1 construct: expressed in transfected cells; host or cells: HEK cells (TLR7/NFKb reporter line)
T1 sequence (Q9NYK1 27-1049): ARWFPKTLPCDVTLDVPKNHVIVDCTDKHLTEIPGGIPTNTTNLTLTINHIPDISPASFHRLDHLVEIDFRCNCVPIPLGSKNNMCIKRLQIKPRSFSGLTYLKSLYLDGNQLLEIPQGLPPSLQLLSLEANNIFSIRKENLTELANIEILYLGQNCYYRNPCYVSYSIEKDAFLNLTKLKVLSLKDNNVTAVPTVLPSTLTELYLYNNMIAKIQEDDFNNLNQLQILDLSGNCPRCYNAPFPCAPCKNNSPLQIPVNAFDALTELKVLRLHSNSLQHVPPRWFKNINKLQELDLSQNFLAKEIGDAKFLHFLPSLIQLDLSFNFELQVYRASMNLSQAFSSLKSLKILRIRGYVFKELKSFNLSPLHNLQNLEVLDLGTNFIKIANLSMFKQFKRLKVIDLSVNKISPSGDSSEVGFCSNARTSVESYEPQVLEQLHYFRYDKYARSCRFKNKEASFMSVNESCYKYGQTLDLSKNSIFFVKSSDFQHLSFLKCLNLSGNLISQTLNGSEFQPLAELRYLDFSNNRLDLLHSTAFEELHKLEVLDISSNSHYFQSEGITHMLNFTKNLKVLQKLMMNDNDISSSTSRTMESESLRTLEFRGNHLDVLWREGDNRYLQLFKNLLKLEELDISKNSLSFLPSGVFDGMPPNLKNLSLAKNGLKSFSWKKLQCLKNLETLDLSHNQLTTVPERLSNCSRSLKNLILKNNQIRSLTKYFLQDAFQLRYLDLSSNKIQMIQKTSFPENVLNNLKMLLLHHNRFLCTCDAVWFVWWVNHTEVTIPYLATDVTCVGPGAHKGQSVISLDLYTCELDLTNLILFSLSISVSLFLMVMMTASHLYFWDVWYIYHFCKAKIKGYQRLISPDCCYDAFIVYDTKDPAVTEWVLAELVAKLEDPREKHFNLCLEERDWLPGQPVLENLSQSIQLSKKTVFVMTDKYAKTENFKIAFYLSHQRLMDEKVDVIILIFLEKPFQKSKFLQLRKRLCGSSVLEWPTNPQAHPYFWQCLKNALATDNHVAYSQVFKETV
Description: HEK Cell Assay (TLR7/NFKb reporter, Steady-Glo luciferase readout). Format: cell-based. Particulars: 30 min compound preincubation, then R*48 agonist for 5 hours, read-out: Potency. A digest of the protocol: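 Steady-Glo luminescence after 5 h stimulation with R*48 agonist, following 30 min compound preincubation. Assay run in HEK cells carrying a TLR7/NFKb luciferase reporter, plated at 5000 cells/well and grown 24 h at 37° C (10% CO2) before treatment.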
In the case of `CCN(CC)CCNCC1CCN(c2ccnc3cc(F)ccc23)CC1` [Compound 383, N,N-Diethyl-N′-[1-(7-fluoro-quinolin-4-yl)-piperidin-4-ylmethyl]-ethane-1,2-diamine], the IC50 was in the range of 1000 to 10000 nM.

Consider `C[C@H]1C[C@@H](NC(=O)CN2CC(N)C2)CN(c2ccc(C(F)F)c3nccnc23)C1` [Compound 365, 2-(3-aminoazetidin-1-yl)-N-[(3R,5S)-1-[8-(difluoromethyl)quinoxalin-5-yl]-5-methylpiperidin-3-yl]acetamide], for which the IC50 lay in the range of 1000 to 10000 nM. The same measure for `Cc1cc2c(N3C[C@@H](C)C[C@@H](N)C3)ccnc2n1C` [Compound 9, (3R,5S)-1-(1,2-dimethyl-1H-pyrrolo[2,3-b]pyridin-4-yl)-5-methylpiperidin-3-amine]: > 10000 nM. Turning to `C[C@H]1C[C@@H](NC(=O)CC2CCN(C)CC2)CN(c2ccc(C(F)F)c3ncccc23)C1` [Compound 316, N-[(3R,5S)-1-[8-(difluoromethyl)quinolin-5-yl]-5-methylpiperidin-3-yl]-2-(1-methylpiperidin-4-yl)acetamide], the IC50 is < 1000 nM.

On to `C[C@@H]1CN(c2ccc(C#N)c3nccnc23)C[C@H](C)O1` [Compound 44, 8-((2R,6S)-2,6-dimethylmorpholino)quinoxaline-5-carbonitrile], for which the IC50 is < 1000 nM. On to `CCC(C)C(=O)N[C@@H]1C[C@H](C)CN(c2ccnc3nccnc23)C1` (single isomer, unassigned) [Compound 157], for which the IC50 is > 10000 nM. Then `C#CC(=O)N[C@@H]1C[C@H](C)CN(c2ccc(C(F)(F)F)c3ncccc23)C1` [Compound 472, Propynoic acid [(3R,5S)-5-methyl-1-(8-trifluoromethyl-quinolin-5-yl)-piperidin-3-yl]-amide], with < 1000 nM; and `CCN(C)[C@@H](C)C(=O)N[C@@H]1C[C@H](C)CN(c2ccnc3nccnc23)C1` [Compound 101, (2S)-2-[ethyl(methyl)amino]-N-[(3R,5S)-5-methyl-1-[pyrido[2,3-b]pyrazin-8-yl]piperidin-3-yl]propanamide], with 1000 to 10000 nM; and `CCN(CC)CCNCC1CCN(c2cc(C)nc3cc(F)ccc23)CC1` [Compound 386, N,N-Diethyl-N′-[1-(7-fluoro-2-methyl-quinolin-4-yl)-piperidin-4-ylmethyl]-ethane-1,2-diamine], with 1000 to 10000 nM.

On to `CC(C(=O)N[C@@H]1C[C@H](C)CN(c2ccc(C(F)(F)F)c3ncccc23)C1)N1CC(N)C1` (stereo partly drawn) [Compound 281, 2-(3-aminoazetidin-1-yl)-N-[(3R,5S)-5-methyl-1-[8-(trifluoromethyl)quinolin-5-yl]piperidin-3-yl]propanamide], for which the IC50 was < 1000 nM.

In the case of `C[C@H]1C[C@@H](NC(=O)C2CCN(C3CC3)CC2)CN(c2ccc(C(F)(F)F)c3ncccc23)C1` [Compound 574, 1-Cyclopropyl-piperidine-4-carboxylic acid [(3R,5S)-5-methyl-1-(8-trifluoromethyl-quinolin-5-yl)-piperidin-3-yl]-amide], the IC50 is < 1000 nM. Turning to `N[C@H]1C[C@@H](C2CC2)CN(c2ccc(C(F)(F)F)c3nccnc23)C1` (relative stereo) [Compound 330, cis-5-cyclopropyl-1-[8-(trifluoromethyl)quinoxalin-5-yl]piperidin-3-amine], the IC50 was < 1000 nM.

For the compound `N#Cc1ccc(N2C[C@@H](NC(=O)CO)C[C@@H](C(F)(F)F)C2)c2nccnc12` (relative stereo) [Compound 223, cis-N-[1-(8-cyanoquinoxalin-5-yl)-5-(trifluoromethyl)piperidin-3-yl]-2-hydroxyacetamide], the IC50 lay within 1000 to 10000 nM.

Turning to `N[C@H]1C[C@@H](C2CC2)CN(c2ccc(F)c3ncccc23)C1` (relative stereo) [Compound 333, cis-5-cyclopropyl-1-(8-fluoroquinolin-5-yl)piperidin-3-amine], the IC50 was < 1000 nM. As for `C[C@H]1C[C@@H](NC(=O)CC2CNC2)CN(c2ccc(C(F)F)c3ncccc23)C1` [Compound 312, 2-(azetidin-3-yl)-N-[(3R,5S)-1-[8-(difluoromethyl)quinolin-5-yl]-5-methylpiperidin-3-yl]acetamide], the IC50 lay in the range of 1000 to 10000 nM. The same measure for `CC(C)(O)CC(=O)N[C@@H]1C[C@H](C(F)(F)F)CN(c2ccc(C#N)c3ncccc23)C1` (racemic) [Compound 481]: 1000 to 10000 nM.

On to `CCN(CC)CCNCC1CCN(c2cc(C)nc3ccc(F)cc23)CC1` [Compound 374, N,N-diethyl-N′-[1-(6-fluoro-2-methyl-quinolin-4-yl)-piperidin-4-ylmethyl]-ethane-1,2-diamine], for which the IC50 is 1000 to 10000 nM.

With `CCN(CC)C(=O)CCC(=O)N[C@@H]1C[C@H](C)CN(c2ccc(C(F)(F)F)c3ncccc23)C1` [Compound 575, N,N-Diethyl-N′-[(3R,5S)-5-methyl-1-(8-trifluoromethyl-quinolin-5-yl)-piperidin-3-yl]-succinamide], the IC50 lay in the range of 1000 to 10000 nM. Turning to `CNCC(=O)N[C@@H]1C[C@H](C)CN(c2ccnc3nccnc23)C1` [Compound 29, N-((3R,5S)-5-methyl-1-(pyrido[2,3-b]pyrazin-8-yl)piperidin-3-yl)-2-(methylamino)acetamide], the IC50 is > 10000 nM. Consider `N#Cc1ccc(N2CC(N)CC(F)(F)C2)c2nccnc12` (single isomer, unassigned) [Compound 75], for which the IC50 was < 1000 nM.

Regarding `C[C@@H]1CN(c2ccnc3nccnc23)C[C@H](CN2CCC(N(C)C)CC2)O1` [Compound 55, N,N-dimethyl-1-(((2S,6R)-6-methyl-4-(pyrido[2,3-b]pyrazin-8-yl)morpholin-2-yl)methyl)piperidin-4-amine], the IC50 is < 1000 nM. As for `C[C@H]1C[C@@H](NC(=O)CN(C)C)CN(c2ncc(F)c3nccnc23)C1` [Compound 460, 2-Dimethylamino-N-[(3R,5S)-1-(8-fluoro-pyrido[3,4-b]pyrazin-5-yl)-5-methyl-piperidin-3-yl]-acetamide], the IC50 is > 10000 nM.

For the compound `C[C@H]1C[C@@H](NC(=O)C(N)C(F)(F)F)CN(c2ccc(C(F)F)c3ncccc23)C1` (single isomer, unassigned) [Compound 207], the IC50 was 1000 to 10000 nM. Turning to `N#Cc1ccc(N2CC(NC3CCC(O)CC3)CC(C(F)(F)F)C2)c2nccnc12` (single isomer, unassigned) [Compound 91, cis,cis-8-(3-((4-hydroxycyclohexyl)amino)-5-(trifluoromethyl)piperidin-1-yl)quinoxaline-5-carbonitrile], the IC50 is < 1000 nM.

For the compound `C[C@H]1C[C@@H](NC(=O)COC(C)(C)C)CN(c2ccc(C#N)c3nccnc23)C1` [Compound 163, 2-(tert-butoxy)-N-[(3R,5S)-1-(8-cyanoquinoxalin-5-yl)-5-methylpiperidin-3-yl]acetamide], the IC50 is < 1000 nM. Then `N#Cc1ccc(N2C[C@@H](NC(=O)CCC(=O)N3CCC3)C[C@@H](C(F)(F)F)C2)c2cccnc12` (racemic) [Compound 482], with 1000 to 10000 nM; and `C[C@H]1C[C@@H](NC(=O)CC(F)(F)F)CN(c2ccnc3nccnc23)C1` [Compound 120, 3,3,3-trifluoro-N-[(3R,5S)-5-methyl-1-[pyrido[2,3-b]pyrazin-8-yl]piperidin-3-yl]propanamide], with > 10000 nM; and `CCN(CC)CCNC(=O)C1CCN(c2ncc(F)c3nccnc23)CC1` [Compound 456, 1-(8-Fluoro-pyrido[3,4-b]pyrazin-5-yl)-piperidine-4-carboxylic Acid (2-diethylamino-ethyl)-amide], with > 10000 nM.

`C[C@H]1C[C@@H](NC(=O)C2(CO)CC2)CN(c2ccc(C#N)c3nccnc23)C1` [Compound 162, N-[(3R,5S)-1-(8-cyanoquinoxalin-5-yl)-5-methylpiperidin-3-yl]-1-(hydroxymethyl)cyclopropane-1-carboxamide]: the IC50 was 1000 to 10000 nM. Turning to `CN[C@@H]1C[C@H](C)CN(c2ccc(C#N)c3nccnc23)C1` [Compound 16, 8-((3S,5R)-3-methyl-5-(methylamino)piperidin-1-yl)quinoxaline-5-carbonitrile hydrochloride], the IC50 is < 1000 nM. For `C[C@@H]1CN(c2ccnc3nccnc23)C[C@H](C(=O)N2CC(N)C2)O1` [Compound 63, (3-aminoazetidin-1-yl)((2R,6R)-6-methyl-4-(pyrido[2,3-b]pyrazin-8-yl)morpholin-2-yl)methanone], the IC50 is > 10000 nM.

The record behind these values is US10947213B1 (Merck Patent GmbH, priority 2015, dated 2021).
